The source of these data is patent US20130034597A1, “ORALLY BIOAVAILABLE PEPTIDE DRUG COMPOSITIONS AND METHODS THEREOF” (AEGIS THERAPEUTICS LLC, priority 2011, published 2013).

Positions of bridges follow the written chain, without caps; N, C: chain ends. Non-standard residues stand in square brackets, D forms with d. Residues, ends and D or L forms follow the SMILES beside them. d2Nal = N[C@H](Cc1ccc2ccccc2c1)C(=O)O

The conditions of data set [1]: intranasal delivery; cited from earlier work.
The nature of data set [2]: Maximum water solubility of TEEE. Type of data set: physicochemical. As for the experimental part: The compound described is a selective IL-23 receptor antagonist peptide comprising D-amino acids with the formula cyclo-D-[…] (SEQ ID NO: 3), where any amino acid is a D-amino acid, MW: ca. 1039, hereafter designated TEEE, supplied by Allostera Pharma as a dry powder, and is formulated for intravenous at 0.02 and 0.2 mg/mL in sterile saline by dilution of an initial stock prepared at 2 mg/mL. Additionally, 4 different formulations of dry TEEE are prepared in gelatin capsules. For each type of dry formulation 10 capsules are prepared to contain enough test article in a way to deliver ca 2.5, 5.0 or 10 mg/kg. […] Solutions and capsules are stored at ca 4° C. upon until dose administration. The intravenous formulation is kept at room temperature pending dose administration. The final appearance of the intravenous formulations consists of clear solutions.

Data set [3] is described as follows: Clinical signs during the TEEE pharmacokinetic study. Type of data set: in vivo, Male Sprague-Dawley rats. To be noted: oral (2.5-10 mg/kg capsules) or intravenous (0.1, 1 mg/kg) administration, rats. From the text:
Male Sprague-Dawley rats are ca 8-9 week old at onset of treatment (weight at onset of treatment, 348-398 g). Animals are allocated into groups of 3 rats/group. Immediately following arrival, animals are uniquely identified via an eartag. Animals are purchased from Charles River Canada (St-Constant, Canada). Following an examination by a qualified In-Life Specialist (including body weight determination), animals are acclimated to the testing facilities for ca 72 hr prior to test article administration. Room conditions are: temperature ca 20° C., humidity ca 50%. Animals are housed in solid bottom polycarbonate cages equipped with a filter top to avoid contamination, fed with standard certified rodent food (brand and lot no. to be documented in the raw data). The animals had continuous access to RO/UV water, via bottles. All rats are administered the compounds intravenously (Groups 1 and 2) in a jugular vein under light isoflurane anesthesia or orally by capsule (one per animal) using a specially designed capsule delivery tube (Groups 3-14). The dose volume is 5.0 ml/kg for groups 1 and 2 and one capsule/animal for Groups 3 to 14. Prior to dosing, each animal is weighed and the weight recorded. […] Plasma concentrations of each compound are determined using an LCMS assay (non-GLP) with an analytical range of ca 25-1000 ng/mL. […]

In data set [4] the target is somatostatin receptor (SSTR) subtype 2 (Homo sapiens, UniProt P30874). The conditions noted are these: cited from earlier work.
Chain of somatostatin receptor (SSTR) subtype 2 (P30874 whole entry): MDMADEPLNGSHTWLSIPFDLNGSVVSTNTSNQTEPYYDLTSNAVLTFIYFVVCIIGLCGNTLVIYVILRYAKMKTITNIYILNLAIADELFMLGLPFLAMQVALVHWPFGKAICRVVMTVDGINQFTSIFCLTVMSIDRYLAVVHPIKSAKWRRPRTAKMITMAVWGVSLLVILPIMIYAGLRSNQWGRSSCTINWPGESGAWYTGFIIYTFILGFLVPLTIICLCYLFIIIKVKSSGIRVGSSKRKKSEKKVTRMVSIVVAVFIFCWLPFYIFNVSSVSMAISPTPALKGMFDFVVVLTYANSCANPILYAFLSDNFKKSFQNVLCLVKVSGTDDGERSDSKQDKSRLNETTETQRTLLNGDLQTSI

calcitonin: in data set [1], the average bioavailability result is listed as “about 3%”.
With “cyclo-D-TEEEQQYL (cyclo([dT][dE][dE][dE][dQ][dQ][dY][dL]); SMILES CC(C)C[C@H]1NC(=O)[C@@H](Cc2ccc(O)cc2)NC(=O)[C@@H](CCC(N)=O)NC(=O)[C@@H](CCC(N)=O)NC(=O)[C@@H](CCC(=O)O)NC(=O)[C@@H](CCC(=O)O)NC(=O)[C@@H](CCC(=O)O)NC(=O)[C@@H]([C@H](C)O)NC1=O)”, the maximum water solubility entry in data set [2] is recorded as “approximately 10 mg/mL”. Moreover, the clinical signs result in data set [3] is “No clinical signs”.
For the compound `CC(C)[C@@H]1NC(=O)[C@H](CCCCN)NC(=O)[C@@H](Cc2c[nH]c3ccccc23)NC(=O)[C@H](Cc2ccc(O)cc2)NC(=O)[C@H](NC(=O)[C@H](N)Cc2ccc3ccccc3c2)CSSC[C@H](C(=O)N[C@H](C(N)=O)[C@@H](C)O)NC1=O` [lanreotide, (4S,7S,10S,13R,16S,19S)-10-(4-aminobutyl)-19-[[(2R)-2-amino-3-naphthalen-2-yl-propanoyl]amino]-N-[(1S,2R)-1-carbamoyl-2-hydroxy-propyl]-16-[(4-hydroxyphenyl)methyl]-13-(1H-indol-3-ylmethyl)-6,9,12,15,18-pentaoxo-7-propan-2-yl-1,2-dithia-5,8,11,14,17-pentazacycloicosane-4-carboxamide] (H-[d2Nal][dC]Y[dW]KV[dC]T-NH2; disulfide 2-7), the binding affinity result in data set [4] is recorded as “high”.
